Experimental data published in paper PMC8648984 (Angewandte Chemie (International ed. in English), 2021).
Values after ≈ are worked out from the molar mass of the structure shown. Values joined by “and” are separate entries in the source; they are usually repeats but may differ in a detail not shown here. Equal entries are not always repeated. Where two headings read alike, the source gives them in different places.

How the values were obtained:
[1] = Chemical stability in HD-MB03 cell culture media; type: physicochemical; details: for half-life: HD-MB03 cell culture media, pH 7.7; for t1/2 HD-MB03 cell media: cell media pH 7.7
[2] = Stability in phosphate-buffered saline; type: physicochemical
[3] = Metabolic stability in mouse liver microsomes; type: in vitro ADME
[4] = Metabolic stability in human liver microsomes; type: in vitro ADME
[5] = Caco-2 cell permeability; type: in vitro ADME, human; details: human, Caco-2
[6] = cited from earlier work
[7] = Chemical stability in MV4–11 cell culture media; details: for half-life: MV4-11 cell culture media, pH 7.4; for t1/2 MV4–11 cell media: pH 7.4, LCMS over 24 hours
[8] = Aqueous solubility; type: physicochemical; details: for solubility: aqueous medium (not further specified)
[9] = tested on: CaCo2 human colon adenocarcinoma cell line; experiment: Caco-2 cell permeability; type: in vitro ADME
[10] = tested on: MV4–11 cells; experiment: MV4–11 cell viability; type: cell-based, human; details: read-out: MV4–11 IC50; 3 days incubation, CellTiter-Glo
[11] = tested on: HD-MB03 cells; experiment: HD-MB03 cell viability; type: cell-based, human; details: read-out: HD-MB03 IC50
[12] = biological target: CRBN (Homo sapiens, UniProt Q96SW2); experiment: CRBN fluorescence polarization assay; type: binding; details: for LE (ligand efficiency): from CRBN affinity; for IC50: read-out: CRBN IC50, fluorescence polarization, Cy5-conjugated lenalidomide probe
Chain of CRBN (Q96SW2 whole entry, species assumed): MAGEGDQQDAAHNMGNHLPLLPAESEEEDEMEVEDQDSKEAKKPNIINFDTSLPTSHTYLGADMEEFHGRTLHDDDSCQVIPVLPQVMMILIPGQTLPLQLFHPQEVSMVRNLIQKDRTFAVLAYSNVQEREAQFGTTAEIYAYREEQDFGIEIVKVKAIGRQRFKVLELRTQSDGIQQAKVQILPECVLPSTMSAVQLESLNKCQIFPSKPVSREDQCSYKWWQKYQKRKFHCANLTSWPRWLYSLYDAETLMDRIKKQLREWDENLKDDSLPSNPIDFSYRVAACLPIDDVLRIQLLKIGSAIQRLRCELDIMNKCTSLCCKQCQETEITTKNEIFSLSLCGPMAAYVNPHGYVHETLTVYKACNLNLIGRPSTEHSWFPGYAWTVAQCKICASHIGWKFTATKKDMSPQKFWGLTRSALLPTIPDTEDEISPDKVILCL

[13] = Plasma stability; type: in vitro ADME
[14] = biological target: BRD2 (Homo sapiens, UniProt P25440); experiment: BRD2 protein degradation in MV4–11 cells; type: cell-based; details: 100 nM, 4-hour incubation
Chain of BRD2 (P25440 whole entry): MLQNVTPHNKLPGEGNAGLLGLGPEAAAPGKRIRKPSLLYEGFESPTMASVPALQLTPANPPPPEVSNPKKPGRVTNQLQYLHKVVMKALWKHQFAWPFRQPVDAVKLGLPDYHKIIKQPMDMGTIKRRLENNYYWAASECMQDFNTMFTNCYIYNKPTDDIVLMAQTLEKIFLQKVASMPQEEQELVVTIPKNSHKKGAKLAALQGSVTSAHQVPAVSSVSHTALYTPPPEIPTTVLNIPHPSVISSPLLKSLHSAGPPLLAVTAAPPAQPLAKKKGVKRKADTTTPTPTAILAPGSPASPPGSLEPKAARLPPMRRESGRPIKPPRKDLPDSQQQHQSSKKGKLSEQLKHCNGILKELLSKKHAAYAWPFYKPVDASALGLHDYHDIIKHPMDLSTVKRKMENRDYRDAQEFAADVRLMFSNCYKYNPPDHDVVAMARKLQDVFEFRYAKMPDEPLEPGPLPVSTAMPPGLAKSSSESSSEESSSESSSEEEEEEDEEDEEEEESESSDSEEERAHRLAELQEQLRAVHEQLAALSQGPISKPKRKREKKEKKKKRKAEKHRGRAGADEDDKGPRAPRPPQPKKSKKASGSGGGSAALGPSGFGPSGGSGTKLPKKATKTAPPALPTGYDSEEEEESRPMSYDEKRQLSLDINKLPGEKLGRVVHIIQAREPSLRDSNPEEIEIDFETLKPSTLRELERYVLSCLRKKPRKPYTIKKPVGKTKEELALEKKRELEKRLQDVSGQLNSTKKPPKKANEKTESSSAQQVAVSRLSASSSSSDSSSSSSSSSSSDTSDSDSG

[15] = tested on: IKZF1 and CK1α; experiment: Degradation of classical IMiD neosubstrates; type: cell-based
[16] = Chiral stability in cell media; type: physicochemical; details: 24 hours, 37°C
[17] = 3 days incubation, CellTiter-Glo

Structure (SMILES): O=C1CCC(N2C(=O)c3ccccc3C2=O)C(=O)N1 (centres unmarked) [1a, thalidomide]
- half-life [1]: 1.8 ± 0.1 h
- half-life [2]: 5.4 ± 0.2 h
- half-life ([3]; liver microsomes): 3.99 ± 0.01 h
- half-life ([4]; liver microsomes): 4.55 ± 0.61 h
- Papp [5]: 34.9 ± 1.46 ×10⁻⁶ cm/s
- half-life to hydrolysis ([6]; pH 7): 11 h
- half-life to hydrolysis ([6]; pH 7.4): 5 h
- half-life to hydrolysis ([6]; pH 8): 1.25 h
- half-life [7]: 3.3 ± 0.4 h
- percentage remaining ([7]; MV4–11 cell media, after 6 hours, 37°C): 20%
- level remaining ([7]; MV4–11 cell media, at 24 hours, 37°C): below limits of detection

Structure (SMILES): Nc1cccc2c1CN(C1CCC(=O)NC1=O)C2=O (centres unmarked) [1b, lenalidomide]
- half-life [1]: 7.6 ± 0.6 h
- half-life [2]: 33.6 ± 2.5 h
- half-life ([3]; liver microsomes): > 24 h
- half-life ([4]; liver microsomes): > 24 h
- solubility [8]: 111 ± 6.2 µM (≈ 28.7 µg/mL)
- Papp [5]: 4 ± 1.02 ×10⁻⁶ cm/s
- half-life [7]: 11.7 h

Structure (SMILES): Nc1cccc2c1C(=O)N(C1CCC(=O)NC1=O)C2=O (centres unmarked) [1c, pomalidomide]
- half-life [1]: 5.4 ± 0.7 h
- half-life [2]: 32.5 ± 1 h
- half-life ([3]; liver microsomes): 7.8 ± 0.69 h
- half-life ([4]; liver microsomes): > 24 h
- solubility [8]: 84.6 ± 2.3 µM (≈ 23.1 µg/mL)
- Papp [5]: 36 ± 1.39 ×10⁻⁶ cm/s
- half-life [7]: 12.2 ± 0.5 h

Structure (SMILES): O=C1CCC(c2ccccc2)C(=O)N1 (centres unmarked) [2a, phenyl glutarimide]
- t1/2 HD-MB03 cell media [1]: 20.8 ± 0.8 h
- t1/2 PBS [2]: >48 h
- t1/2 mLM ([3]; liver microsomes): >24 h
- t1/2 hLM ([4]; liver microsomes): >24 h
- Sol. (aqueous solubility) [8]: 76.2 ± 0.1 µM
- CaCo2 Papp [9]: 21.55 ± 6.54 ×10⁻⁶ cm/s
- IC50 [10]: > 7000 nM
- IC50 [11, 17]: > 7000 nM
- t1/2 MV4–11 cell media ([7]; 37°C): >24 h

Structure (SMILES): COc1ccc(C2CCC(=O)NC2=O)cc1 (centres unmarked) [2b]
- LE (ligand efficiency) [12]: 0.48
- IC50 [12]: 3150 nM and 3160 nM
- t1/2 HD-MB03 cell media [1]: 19.7 ± 0.1 h
- t1/2 PBS [2]: >48 h
- t1/2 hLM ([4]; microsomes): >24 h
- Sol. (aqueous solubility) [8]: 89.0 ± 1.8 µM
- CaCo2 Papp [9]: 81.8 ± 25.14 ×10⁻⁶ cm/s
- t1/2 MV4–11 cell media ([7]; 37°C): >24 h

Structure (SMILES): Nc1ccc(C2CCC(=O)NC2=O)cc1 (centres unmarked) [2c]
- LE (ligand efficiency) [12]: 0.64
- IC50 [12]: 123 ± 66 nM
- t1/2 HD-MB03 cell media [1]: 16.4 ± 0.3 h
- t1/2 PBS [2]: >48 h
- t1/2 mLM ([3]; microsomes): 23.19 ± 1.63 h
- t1/2 hLM ([4]; microsomes): 15.66 ± 4.78 h
- Sol. (aqueous solubility) [8]: 148.5 ± 4.7 µM
- CaCo2 Papp [9]: 15.72 ± 0.94 ×10⁻⁶ cm/s
- t1/2 MV4–11 cell media ([7]; 37°C): >24 h

Structure (SMILES): Cc1sc2c(c1C)C(c1ccc(Cl)cc1)=N[C@@H](CC(=O)NCCCCNC(=O)COc1cccc3c1C(=O)N(C1CCC(=O)NC1=O)C3=O)c1nnc(C)n1-2 (some centres unmarked) [4a]
- t1/2 HD-MB03 cell media [1]: 2.1 ± 0.3 h
- t1/2 PBS [2]: 12.3 ± 0.6 h
- t1/2 mLM ([3]; microsomes): 0.13 ± 0.01 h
- Sol. (aqueous solubility) [8]: 53.5 ± 0.3 µM
- CaCo2 Papp [9]: 1.16 ± 0.47 ×10⁻⁶ cm/s
- IC50 [10]: 6.1 ± 1.56 nM
- IC50 [11, 17]: 1240 nM
- IC50 ([11]; 7 days incubation): > 4000 nM
- plasma stability t1/2 [13]: 3.27 ± 0.25 h
- depletion of BRD2 protein [14]: > 90%
- degradation of IMiD neosubstrates IKZF1 and CK1α [15]: Neither of the two PROTACs degraded classical IMiD neosubstrates
- t1/2 MV4–11 cell media ([7]; 37°C): 4.2 ± 0.8 h

Structure (SMILES): COc1ccc([C@H]2CCC(=O)NC2=O)cc1 [(R)-2b]
- IC50 [12]: 1410 nM
- chiral inversion ([16]; HD-MB03 cell media): 21%
- chiral inversion ([16]; MV4–11 cell media): 10%

Structure (SMILES): COc1ccc([C@@H]2CCC(=O)NC2=O)cc1 [(S)-2b]
- IC50 [12]: > 25000 nM
- chiral inversion ([16]; HD-MB03 cell media): 24%
- chiral inversion ([16]; MV4–11 cell media): 13%

Structure (SMILES): Cc1sc2c(c1C)C(c1ccc(Cl)cc1)=N[C@@H](CC(=O)OC(C)(C)C)c1nnc(C)n1-2 [JQ1]
- IC50 [10]: 83 ± 10.3 nM
- IC50 [11, 17]: 265 ± 62.6 nM
